The source of these data is patent US20180000725A1, “ORALLY-DISSOLVING FILMS FOR DRUG DELIVERY THROUGH THE ORAL CAVITY” (The Chinese University of Hong Kong, priority 2016, published 2018).

Each structure is given as a SMILES string. Read-outs that look alike come from different tables or passages of the source.

A short description of data set [1]: in vivo. The following applies: New Zealand Albino, rabbit, po, 1.5 mg/kg.
Method: (§1) New Zealand Albino rabbits (3.0-4.5 kg) were used in this study. The rabbits were kept at a 12/12 hour light/dark cycle with unlimited food and water supply. […] The rabbits were lightly anesthetized by an intramuscular injection of ketamine and xylazine immediately before dosing. In order to compensate for reduced saliva secretion due to anesthesia, the mouths of the rabbits were wetted with a small amount of distilled water (about 1 mL) before sublingual or buccal administration of the orally dissolving films.
(§2) Blood samples were collected periodically at pre-determined time points for 6 hours.
(§3) The pharmacokinetic studies were conducted by three different routes (i.e. oral, sublingual, and buccal administration), and the data were analyzed non-compartmentally by using WinNonlin (Certara USA, Inc., Princeton, N.J., USA).
For data set [2] the following is noted: ropinirole, cited from earlier work.
For data set [3] the following is noted: cited from earlier work.
A short description of data set [4]: In vivo pharmacokinetic study of ropinirole / ROP-ODF. The following applies: New Zealand Albino, rabbit, po, 1.5 mg/kg.
Method: as §1, §2, §3

By AUC(0-inf) is commonly meant the area under the concentration-time curve extrapolated to infinity. As usually defined, the AUC(0-t) is exposure summed from dosing to a finite time, without extrapolation to infinity. A high value points to high exposure. The term Cmax denotes the highest concentration seen after dosing. One may read the half-life as how long it takes for the measured level to halve. Higher therefore signals slow loss. One may read the Tmax as the time from dosing to the highest level. In the case of `CCCN(CCC)CCc1cccc2c1CC(=O)N2` [ropinirole, Ropinirole], in data set [1], the area under the curve AUC(0-inf) was 90.5 ng·h/mL, the AUC(0-t) is 65.5 ng·h/mL, the maximum concentration (Cmax) turned out to be 29.9 ± 16.2 ng/mL and the half-life was determined as 2.893 ± 0.0183 h. Besides, in data set [2] (after oral administration), the Tmax is about 1.5 h. The “oral dose excreted unchanged” value in data set [2] (oral) is reported as 10%. For the same compound, the “protein binding in the plasma” value in data set [3] is 10-39%. The time to peak (Tmax) in data set [4] is 2.38 h.
